Relative viability data for 4 cell lines are collected here from the supplement of paper PMC10307832.

Common to all, as to test: relative viability (nuclei count vs DMSO), 5 days (fraction); higher = more cells survive
Compound in assay [1]: O=C(NC1CCNCC1)c1n[nH]cc1NC(=O)c1c(Cl)cccc1Cl [AT-7519] + COc1cc2c(Oc3ccc(NC(=O)C4(C(=O)Nc5ccc(F)cc5)CC4)cc3F)ccnc2cc1OCCCN1CCOCC1 [Foretinib] (partner 0.25 µM)
An outline of the steps:
(§1)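 A single step with final 0.05% Triton X-100, 1% formaldehyde and 1 ug/ml Hoechst fixed the cells and stained nuclei 5 days after treatment. Lung cancer cell lines in 1536-well plates had been treated by pin tool the day after seeding with one drug alone or a fixed anchor-drug dose plus five library-drug doses (not always all listed) in √10 steps, and nuclei were counted on 4× images. Relative viability is the ratio of nuclei in treated wells to nuclei in vehicle wells, taken as the median of duplicate plates.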

Compound in assay [2]: O=C(NC1CCNCC1)c1n[nH]cc1NC(=O)c1c(Cl)cccc1Cl [AT-7519] + C[C@@H](Oc1cc(-c2cnn(C3CCNCC3)c2)cnc1N)c1c(Cl)ccc(F)c1Cl [Crizotinib] (partner 1 µM)
An outline of the steps:
as §1

Compound in assay [3]: C1=CC2=C(C=C(C(=C2N=C1)O)N=NC3=CC4=C(C=C3)C=C(C=C4)S(=O)(=O)O)S(=O)(=O)O + O=C(c1cc(Cc2n[nH]c(=O)c3ccccc23)ccc1F)N1CCN(C(=O)C2CC2)CC1 [Olaparib] (partner 8 µM)
The method in brief: as §1

Compound in assay [4]: C1=CC2=C(C=C(C(=C2N=C1)O)N=NC3=CC4=C(C=C3)C=C(C=C4)S(=O)(=O)O)S(=O)(=O)O + NC(=O)Nc1cc(-c2cccc(F)c2)sc1C(=O)N[C@H]1CCCNC1 [AZD7762] (partner 0.2 µM)
An outline of the steps:
as §1

Take NCI-H1755: the relative viability was found to be 0.947 in assay [1] (first compound 0.01 µM); 0.944 in assay [1] (first compound 0.03162 µM); 0.813 in assay [1] (first compound 0.3162 µM); 0.878 in assay [1] (first compound 1 µM); 0.837 in assay [2] (first compound 0.01 µM); 1.03 in assay [2] (first compound 0.03162 µM). In addition, the relative viability turned out to be 0.935 in assay [2] (first compound 0.3162 µM); 0.688 in assay [2] (first compound 1 µM); 0.913 in assay [3] (first compound 0.08 µM); 0.864 in assay [3] (first compound 0.253 µM); 0.831 in assay [3] (first compound 0.8 µM); 0.964 in assay [3] (first compound 2.53 µM). Besides, the relative viability was 0.874 in assay [3] (first compound 8 µM); 0.535 in assay [4] (first compound 0.08 µM); 0.419 in assay [4] (first compound 0.253 µM); 0.361 in assay [4] (first compound 0.8 µM); 0.457 in assay [4] (first compound 2.53 µM); 0.459 in assay [4] (first compound 8 µM).
Turning to NCI-H1915, the relative viability is 1.07 in assay [1] (first compound 0.01 µM); 1.1 in assay [1] (first compound 0.03162 µM); 1.07 in assay [1] (first compound 0.3162 µM); 0.807 in assay [1] (first compound 1 µM); 0.933 in assay [2] (first compound 0.01 µM); 0.926 in assay [2] (first compound 0.03162 µM). Moreover, the relative viability is 0.793 in assay [2] (first compound 0.3162 µM); 0.741 in assay [2] (first compound 1 µM); 0.25 in assay [3] (first compound 0.08 µM); 0.286 in assay [3] (first compound 0.253 µM); 0.256 in assay [3] (first compound 0.8 µM); 0.258 in assay [3] (first compound 2.53 µM). Besides, the relative viability is 0.258 in assay [3] (first compound 8 µM); 0.735 in assay [4] (first compound 0.08 µM); 0.706 in assay [4] (first compound 0.253 µM); 0.661 in assay [4] (first compound 0.8 µM); 0.688 in assay [4] (first compound 2.53 µM); 0.679 in assay [4] (first compound 8 µM).
As for NCI-H1944, the relative viability in assay [1] (first compound 0.01 µM) was 0.899; in assay [1] (first compound 0.03162 µM), 0.855; in assay [1] (first compound 0.3162 µM), 0.84; in assay [1] (first compound 1 µM) it was 0.662; in assay [2] (first compound 0.01 µM), 1.18; in assay [2] (first compound 0.03162 µM), 1.34. Also, the relative viability in assay [2] (first compound 0.3162 µM) was 0.926; in assay [2] (first compound 1 µM) it was 0.862; in assay [3] (first compound 0.08 µM) it was 0.407; in assay [3] (first compound 0.253 µM), 0.402; in assay [3] (first compound 0.8 µM), 0.426; in assay [3] (first compound 2.53 µM), 0.416. Further, the relative viability in assay [3] (first compound 8 µM) is 0.33; in assay [4] (first compound 0.08 µM), 0.643; in assay [4] (first compound 0.253 µM) it was 0.647; in assay [4] (first compound 0.8 µM), 0.746; in assay [4] (first compound 2.53 µM), 0.519; in assay [4] (first compound 8 µM) it was 0.464.
Turning to NCI-H1975, the relative viability in assay [1] (first compound 0.01 µM) amounted to 0.982; in assay [1] (first compound 0.03162 µM), 0.953; in assay [1] (first compound 0.3162 µM), 0.863; in assay [1] (first compound 1 µM), 0.189; in assay [2] (first compound 0.01 µM), 1.09; in assay [2] (first compound 0.03162 µM) it was 0.973. The relative viability turned out to be 0.877 in assay [2] (first compound 0.3162 µM); 0.206 in assay [2] (first compound 1 µM); 0.868 in assay [3] (first compound 0.08 µM); 0.854 in assay [3] (first compound 0.253 µM); 0.772 in assay [3] (first compound 0.8 µM); 0.795 in assay [3] (first compound 2.53 µM). Besides, the relative viability in assay [3] (first compound 8 µM) stood at 0.824; in assay [4] (first compound 0.08 µM), 0.715; in assay [4] (first compound 0.253 µM), 0.69; in assay [4] (first compound 0.8 µM), 0.671; in assay [4] (first compound 2.53 µM), 0.748; in assay [4] (first compound 8 µM), 0.702.
